Test results as given in US8975265B2, “Substituted imidazo[1,2-a]pyrimidines and —pyridines” (Bayer Intellectual Property GmbH, priority 2010, dated 2015).
pIC50: −log10 of the molar value. Like-named read-outs stand apart in the source and are kept apart here.

Assays:
[1] = target: His-tagged human recombinant kinase full-length Akt1 (Homo sapiens (Human), UniProt P31749); test: Akt1 kinase assay (TR-FRET); assay type: biochemical; settings: 10 μM ATP; read-out: Akt1, median IC50
How it was run: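 Full-length His-tagged Akt1 (about 0.05 ng/μl final) preincubated 15 min at 22 °C with compound in 50 mM TRIS/HCl pH 7.5, 5 mM MgCl2, 1 mM DTT, 0.02% Triton X-100; biotinylated peptide substrate. Phosphopeptide detected by TR-FRET (Eu-chelate antibody to streptavidin-XL665) after 1 h at 22 °C.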

[2] = system: p-4E-BP1-T70 in KPL4 breast tumour cell line; test: Cellular p-4E-BP1-T70 assay; assay type: cell-based; settings: 2 hours treatment, read-out: P4EBP1-T70 median IC50
Method: The molecular mechanism of action was investigated in a set of experiments to assess the inhibition of the PI3K-AKT-mTOR pathway in responsive cell lines such as KPL4 breast tumour cell line (PIK3CAH1047R, HER20/E and hormone independent). The phospho-substrates of PI3K-AKT-mTOR axis were used as the read-outs to reflect pathway inhibition. Cells were seeded at 60-80% confluency per well in 96-well cell culture plates. After overnight incubation at 37° C. 5% CO2, cells were treated with compounds and vehicle at 37° C. for 2 hours. Thereafter, cells were lysed in 150 μl lysis buffer and the levels of phospho-AKT at T308 and S473 and p-4E-BP1 at T70 sites were determined with the corresponding AlphaScreen® SureFire® assay kits (Perkin Elmer: 4E-BP1 Assay Kit Cat # TRG4E2S10K; Akt 1/2/3 p-Ser 473 #TGRA4S500 and Akt 1/2/3 p-Thr 308 #TGRA3S500 as well as IgG detection Kit #6760617M) as described in the manuals. All measurements where at least done in duplicates and confirmed by independent repetition.

[3] = system: p-AKT S473 in PC3 human prostate tumours; test: In vivo xenograft mechanism of action study; set-up: species or system athymic nude mice; settings: Mus musculus, po, PC3 tumours in nude mice, once 50 mg/kg p.o.
Excerpt: In Vivo Xenograft Mechanism of Action Study
To this extent PC3 human prostate tumours were xenografted onto athymic nude mice. PC3 tumour cells were cultivated according to ATCC protocols in recommended media contained 10% FCS and harvested for transplantation in a subconfluent (70%) state. 3×10^6 tumour cells suspended in 50% Matrigel were subcutaneously implantated into the inguinal region of male mice. Tumours were allowed to grow to the predetermined size of 60-80 mm^2. When the tumours were approximately in size, the animals were randomized to treatment and control groups (groups size: 9 animals) and treatment was started. Animals were treated once with 50 mg/kg compound or vehicle per oral administration (p.o.) carried out via a gastric tube. Treatment of each animal was based on individual body weight. At 2, 5 and 24 hours post treatment 3 animals each were sacrificed and the PC3 tumours excised. Tumour samples of approximately 5×5×5 mm were lysed on ice in MSD lysis buffer in the presence of protease and phosphatase inhibitors using Tissue Lyzer (Qiagen, Germany). The levels of p-AKT S473 in extracts from tumour tissue were analysed in an ELISA based assay. This assay is based on the “Akt Duplex” of the MULTI-SPOT® Assay System (Fa. Meso Scale Discovery, Cat# N41100B-1) following manufacturers instructions. Each assay used 20 μg of protein extract and measured total AKT and p-AKT content simultaneously in one well. All measurements where at least done in duplicates and confirmed by independent repetition.
Values for P-AKT are expressed as percentage of P-AKT level compared to total-AKT content of the extracts. Vehicle treated tumours were analyzed to determine the basal level of P-AKT in this model and used as a normalization control to determine the % P-AKT relative to vehicle levels.

MCF7 = test: Tumor cell proliferation assay (CellTiter-Glo, 72 h), MCF7; assay type: cell-based; settings: Homo sapiens, 72h drug exposure
How it was run: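 Cells seeded at 3000–5000/well and incubated overnight, then exposed to compound for 72 h at 37 °C. Viability measured by CellTiter-Glo ATP luminescence, with a separate plate read at t=0.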

LnCAP = test: Tumor cell proliferation assay (CellTiter-Glo, 72 h), LnCAP; assay type: cell-based; settings: Homo sapiens, 72h drug exposure
Method: Compounds were tested in a cell-based assay that measures the capacity of the compounds to inhibit tumour cell proliferation following a 72h drug exposure. Cell viability is determined using CellTiter-Glow® (CTG, Promega, cat# G7571/2/3). The CellTiter-Glo® Luminescent Cell Viability Assay is a homogeneous method to determine the number of viable cells in culture. Detection is based on using the luciferase reaction to measure the amount of ATP from viable cells. The amount of ATP in cells correlates with cell viability. Within minutes after a loss of membrane integrity, cells lose the ability to synthesize ATP, and endogenous ATPases destroy any remaining ATP; thus the levels of ATP fall precipitously.
Cells were plated at 3000-5000 cells/well (depending on the cell lines) in 90 μL growth medium on MTPs (Corning; #3603, black plate, clear flat bottom). For each cell line assayed, cells were plated onto a separate plate for determination of […] at t=0 hour and t=72 hour time points. Following overnight incubation at 37° C., chemiluminescence values for the t=0 samples were determined after adding 10 μl medium and 100 μl CTG solution according to manufacture protocol. Plates for the t=72 hour time points were treated with compounds diluted into growth medium at ten times final concentration added in 10 μL to the cell culture plate. Cells were then incubated for 72 hours at 37° C. Chemiluminescence values for the t=72 hour samples were determined. […] Experiments were controlled using a reference compound as standard.

[4] = system: KPL-4 breast cancer cell line; test: Tumor cell proliferation assay (CellTiter-Glo, 72 h), KPL-4; assay type: cell-based; settings: KPL4, 72h drug exposure
How it was run: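 KPL-4 cells were treated with compound for 72 h at 37°C. Viability was measured as ATP by CellTiter-Glo luminescence, with a separate t=0 plate read after overnight attachment. A reference compound was run as standard.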

[5] = system: p-AKT1/2/3-S473 in KPL4 breast tumour cell line; test: Cellular p-AKT1/2/3-S473 assay; assay type: cell-based; settings: KPL4 breast tumour cell line, 2 hours treatment; read-out: pAKT-S743 median IC50
How it was run: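 KPL4 cells (PIK3CA H1047R, HER2 0/E, hormone independent) were seeded at 60–80% confluency, cultured overnight, then exposed to compound for 2 h at 37 °C. pAKT-S473 and total AKT measured together by MSD Akt Duplex on 20 µg extract; pAKT expressed as % of total AKT, at least duplicate with independent repeats.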

[6] = 2 hours post treatment, read-out: P-AKT % relative to control at 2 hours
[7] = 5 hours post treatment, read-out: P-AKT % relative to control at 5 hours

Chain of His-tagged human recombinant kinase full-length Akt1 (P31749 whole entry): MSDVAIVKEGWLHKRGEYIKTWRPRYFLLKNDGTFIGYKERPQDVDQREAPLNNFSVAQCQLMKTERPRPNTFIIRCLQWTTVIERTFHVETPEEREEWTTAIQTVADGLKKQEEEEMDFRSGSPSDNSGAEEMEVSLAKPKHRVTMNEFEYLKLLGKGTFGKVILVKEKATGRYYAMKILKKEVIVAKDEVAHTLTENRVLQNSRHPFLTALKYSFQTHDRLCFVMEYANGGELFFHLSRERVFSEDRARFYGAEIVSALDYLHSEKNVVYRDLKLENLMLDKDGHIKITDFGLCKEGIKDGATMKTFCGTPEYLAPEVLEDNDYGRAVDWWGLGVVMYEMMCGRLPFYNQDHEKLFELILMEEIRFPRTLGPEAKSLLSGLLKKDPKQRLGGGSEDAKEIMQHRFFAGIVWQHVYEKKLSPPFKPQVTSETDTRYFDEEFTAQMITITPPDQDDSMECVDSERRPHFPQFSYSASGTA

`COc1cc(C(N)=O)cn2c(-c3ccccc3)c(-c3ccc(C4(N)CCC4)cc3)nc12` [Example 1-13] showed a pIC50 [1] of 7.62, a pIC50 [2] of 5.99 and a response vs control in vivo at 50 mg/kg [3, 6] of 95.7%. For the same molecule, the response vs control in vivo at 50 mg/kg [3, 7] was 152%, the pIC50 (MCF7) was 6.40 and the pIC50 (LnCAP) was 5.96. The pIC50 [4] was 6.05 and the pIC50 [5] was 7.46.
`CCc1ccn2c(-c3ccccc3)c(-c3ccc(C4(N)CCC4)cc3)nc2c1` [Example 2-21] was tested, and the pIC50 [1] was 5.78, the pIC50 (MCF7) was 5.70 and the pIC50 (LnCAP) was 5.72. It also gave a pIC50 [4] of 5.70 and a pIC50 [5] of 6.27.
With `Cc1cc(C(N)=O)c2nc(-c3ccc(C4(N)CCC4)cc3)c(-c3ccccc3)n2c1` [Example 2-96] the pIC50 [1] was 6.05, the pIC50 [2] was 5.74 and the response vs control in vivo at 50 mg/kg [3, 6] was 12.2%. It also gave a response vs control in vivo at 50 mg/kg [3, 7] of 11.4%, a pIC50 (MCF7) of 5.00 and a pIC50 [4] of 5.00. The pIC50 [5] was 5.79.
For `NC1(c2ccc(-c3nc4cc(-c5cccnc5)ccn4c3-c3ccccc3)cc2)CCC1` [Example 2-110], the pIC50 [1] was 6.89, the response vs control in vivo at 50 mg/kg [3, 6] was 10.2% and the response vs control in vivo at 50 mg/kg [3, 7] was 16.4%. For the same molecule, the pIC50 (MCF7) was 6.15, the pIC50 (LnCAP) was 6.30 and the pIC50 [4] was 5.77. The pIC50 [5] was 7.39.
`NC1(c2ccc(-c3nc4cc(-c5cnc[nH]5)ccn4c3-c3ccccc3)cc2)CCC1` [Example 2-115] was tested, and the pIC50 (LnCAP) was 5.77, the pIC50 [4] was 5.74 and the pIC50 [5] was 6.72.
Molecule `COC(=O)CCc1ccn2c(-c3ccccc3)c(-c3ccc(C4(N)CCC4)cc3)nc2c1` [Example 2-125] has a pIC50 [1] of 5.46, a pIC50 (LnCAP) of 5.00 and a pIC50 [4] of 5.51. For the same molecule, the pIC50 [5] was 5.51.
`CCNC(=O)c1ccn2c(-c3ccccc3)c(-c3ccc(C4(N)CCC4)cc3)nc2c1` [Example 2-126] showed a pIC50 [1] of 6.22, a pIC50 (LnCAP) of 6.00 and a pIC50 [4] of 5.80. The pIC50 [5] was 6.90.
In the case of `NC1(c2ccc(-c3nc4cc(C(=O)NO)ccn4c3-c3ccccc3)cc2)CCC1` [Example 2-127], the pIC50 [1] was 6.88, the pIC50 [2] was 5.31 and the pIC50 (LnCAP) was 5.92. The pIC50 [4] was 5.27 and the pIC50 [5] was 5.77.
Molecule `Cn1cncc1-c1ccc2nc(-c3ccc(C4(N)CCC4)cc3)c(-c3ccccc3)n2c1` [Example 2-133] has a pIC50 (LnCAP) of 5.77, a pIC50 [4] of 5.70 and a pIC50 [5] of 6.61.
In the case of `Cn1cc(-c2ccc3nc(-c4ccc(C5(N)CCC5)cc4)c(-c4ccccc4)n3c2)cn1` [Example 2-134], the pIC50 [1] was 6.16, the pIC50 (LnCAP) was 5.74 and the pIC50 [5] was 6.88.
Molecule `CCOC(=O)c1ccc2nc(-c3ccc(C4(N)CCC4)cc3)c(-c3ccccc3)n2c1` [Example 2-143] has a pIC50 [1] of 7.03, a pIC50 [2] of 5.92 and a pIC50 (LnCAP) of 5.74. The pIC50 [4] was 5.02 and the pIC50 [5] was 6.05.
`CC(=O)c1ccc2nc(-c3ccc(C4(N)CCC4)cc3)c(-c3ccccc3)n2c1` [Example 2-144] was tested, and the pIC50 [1] was 7.26, the pIC50 [2] was 5.88 and the response vs control in vivo at 50 mg/kg [3, 6] was 6.3%. It also gave a response vs control in vivo at 50 mg/kg [3, 7] of 8%, a pIC50 (MCF7) of 5.89 and a pIC50 [4] of 5.77. For the same molecule, the pIC50 [5] was 7.04.
Molecule `COc1cc(Cl)cn2c(-c3ccccc3)c(-c3ccc(C4(N)CCC4)cc3)nc12` [Example 2-145] has a pIC50 [1] of 7.62, a pIC50 [2] of 5.92 and a response vs control in vivo at 50 mg/kg [3, 6] of 33%. The response vs control in vivo at 50 mg/kg [3, 7] was 38%, the pIC50 (MCF7) was 6.52 and the pIC50 [4] was 6.00. For the same molecule, the pIC50 [5] was 6.98.
Molecule `NC(=O)c1cccn2c(-c3ccccc3)c(-c3ccc(C4(N)CCC4)cc3)nc12` [Example 6-0, 2-[4-(1-amino-cyclobutyl)-phenyl]-3-phenyl-imidazo[1,2-a]pyridine-8-carboxylic acid amide] has a pIC50 [1] of 7.24, a pIC50 [2] of 6.21 and a response vs control in vivo at 50 mg/kg [3, 6] of 5.8%. It also gave a response vs control in vivo at 50 mg/kg [3, 7] of 6%, a pIC50 (MCF7) of 6.40 and a pIC50 [4] of 6.10. For the same molecule, the pIC50 [5] was 7.80.
`NC(=O)c1cc(Cl)c2nc(-c3ccc(C4(N)CCC4)cc3)c(-c3ccccc3)n2c1` [Example 6-1, 2-[4-(1-amino-cyclobutyl)-phenyl]-8-chloro-3-phenyl-imidazo[1,2-a]pyridine-6-carboxylic acid amide] was tested, and the pIC50 [1] was 7.92, the response vs control in vivo at 50 mg/kg [3, 6] was 7.7% and the response vs control in vivo at 50 mg/kg [3, 7] was 7.5%. It also gave a pIC50 (MCF7) of 6.52, a pIC50 (LnCAP) of 6.40 and a pIC50 [4] of 6.52. It also gave a pIC50 [5] of 8.30.
`NC1(c2ccc(-c3nc4ccc(-c5cccnc5O)cn4c3-c3ccccc3)cc2)CCC1` [Example 11-0, 3-{2-[4-(1-amino-cyclobutyl)-phenyl]-3-phenyl-imidazo[1,2-a]pyridin-6-yl}-pyridin-2-ol] gave a pIC50 [1] of 5.82, a pIC50 (LnCAP) of 5.70 and a pIC50 [4] of 5.66. It also gave a pIC50 [5] of 6.23.
In the case of `Cc1cc(-c2ccc3nc(-c4ccc(C5(N)CCC5)cc4)c(-c4ccccc4)n3c2)[nH]n1` [Example 12-0, 1-{4-[6(5-methyl-2H-pyrazol-3-yl)-3-phenyl-imidazo[1,2-a]pyridin-2-yl]-phenyl}-cyclobutylamine], the pIC50 [1] was 6.16, the pIC50 (LnCAP) was 5.77 and the pIC50 [4] was 5.72. The pIC50 [5] was 6.47.
